Measured values from PubChem BioAssay AID1963843 (Molecular Pharmacology Branch, DTP, NCI, 2024).

System: 616215-338-R-J1-PDC complex spheroid viability
Assay: Anticancer human tumor 616215-338-R-J1-PDC patient-derived colon adenocarcinoma cell line growth inhibition [POLQ]
Conditions: for IC50: curve of first compound; for viability, T/C: stronger effect = lower value
Experimental: Multicellular complex tumor spheroid response to Polymerase (POL) inhibitors (novobiocin, ART-558, RP6685) in combination with a variety of drugs and investigational agents in selected tumor cell lines
The POL inhibitors (novobiocin, ART-558, and RP6685) were evaluated both individually and in combination with standard of care and investigational anticancer small molecules within a complex spheroid model of solid tumors. . Complex spheroids include a stromal component modeled by human endothelial cells (HUVEC) and fibroblasts modeled by human mesenchymal stem cells (MSCs). The concentration ranges selected for each drug and investigational agent were based upon clinically achievable concentrations if the clinical Cmax of the agent was known.
Compounds. The drugs and investigational agents: novobiocin (NSC847541), ART-558 (NSC835418), RP-6685 (NSC848927), peposertib (NSC802822), ceralasertib (NSC780249), elimusertib (NSC800525), camonsertib (NSC841442), AZD-1390 (NSC803789), olaparib (NSC753686), talazoparib (NSC767125), rucaparib (NSC756644), sotorasib (NSC818433), MRTX-1133 (NSC836407), SN-38 (NSC673596), topotecan (NSC609699), epotoside (NSC141540), doxorubicin (NSC123127), gemcitabine (NSC613327), 5-fluorouracil (NSC19893), paclitaxel (NSC125973), vemurafenib (NSC761431), MSA-2 (NSC828583), SN-011 (NSC837082), adavosertib (NSC754352), prexasertib (NSC758257), carboplatin (NSC241240) and oxaliplatin (NSC266046), were obtained from the National Cancer Institute (NCI) Developmental Therapeutics Program Chemical Repository (21). The FDA-approved anticancer drug set is available from the Developmental Therapeutics Program at https://dtp.cancer.gov/organization/dscb/obtaining/. […] The stock solutions were prepared in dimethyl sulfoxide (DMSO, Sigma-Aldrich, St. Louis, MO, cat. D2650), except for the platinum compounds which were prepared in saline (Quality Biological, Gaithersburg, MD, cat. 114-055-101), at 800-fold the tested concentration and stored at -70 degrees C prior to their use. All drugs and investigational agents were tested over a range starting from a high concentration at or near the clinical Cmax and decreasing in half-log increments. If the clinical Cmax for an agent had not been determined, the highest concentration tested was 10 microM, except for SN-38, which was tested at a high concentration of 1 microM.
Cell Culture. All cells were maintained in an incubator at 37 degrees C and 5% CO2 with 95% humidity. The PDC lines were cultured according to standard operating procedures established by the NCI PDMR (https://pdmr.cancer.gov). Table 3 of the manuscript, lists the cell lines along with the number of the three cell types plated to form the mct-spheroids and media for tumor cell growth. After thawing, all PDC lines, except 997537-175-T-J1-PDC and 415267-285-R-J2-PDC, were cultured in Matrigel-coated flasks prepared with a working solution of 1X Ham's F-12 nutrient mix, without supplementation (Thermo Fisher Scientific, cat. 11765054), 100 U/mL penicillin-streptomycin (Thermo Fisher Scientific, cat. 15140122), and 2.5% Matrigel (Corning Inc., Corning, NY, cat. 354248) for the first three passages. The two PDC lines 997537-175-T-J1-PDC and 415267-285-R-J2-PDC were cultured on uncoated flasks. The 857933-349-R-J2-PDC line was cultured in 6C/Colon 1B media containing advanced DMEM/F-12 (Thermo Fisher Scientific, cat. 12634028), 10 mM HEPES (Thermo Fisher Scientific, cat. 15630080), 1X GlutaMAX supplement (Thermo Fisher Scientific, cat. 35050061), 0.1 mg/mL primocin (InvivoGen, San Diego, CA, cat. ant-pm-2), 10% defined fetal bovine serum, heat inactivated (HyClone Laboratories Inc., Logan, UT, cat. SH30070.03HI), 50% L-WRN conditioned media (ATCC, cat. CRL-3276), 1.25 mM N-Acetyl-L-cysteine (Sigma-Aldrich, cat. A9165), 10 mM nicotinamide (Sigma-Aldrich, cat. N0636), 1X B-27 supplement (Thermo Fisher Scientific, cat. 17504044), 1X N-2 supplement (Thermo Fisher Scientific, cat. […]

[1] = second compound 0.0316 µM, first compound 0.0316 µM
[2] = second compound 0.0316 µM, first compound 0.1 µM
[3] = second compound 0.0316 µM, first compound 0.316 µM
[4] = second compound 0.0316 µM, first compound 1 µM
[5] = second compound 0.0316 µM, first compound 3.16 µM
[6] = second compound 0.0316 µM, first compound 10 µM
[7] = second compound 0.1 µM, first compound 0.0316 µM
[8] = second compound 0.1 µM, first compound 0.1 µM
[9] = second compound 0.1 µM, first compound 0.316 µM
[10] = second compound 0.1 µM, first compound 1 µM
[11] = second compound 0.1 µM, first compound 3.16 µM
[12] = second compound 0.1 µM, first compound 10 µM
[13] = second compound 0.316 µM, first compound 0.0316 µM
[14] = second compound 0.316 µM, first compound 0.1 µM
[15] = second compound 0.316 µM, first compound 0.316 µM
[16] = second compound 0.316 µM, first compound 1 µM
[17] = second compound 0.316 µM, first compound 3.16 µM
[18] = second compound 0.316 µM, first compound 10 µM
[19] = second compound 1 µM, first compound 0.0316 µM
[20] = second compound 1 µM, first compound 0.1 µM
[21] = second compound 1 µM, first compound 0.316 µM
[22] = second compound 1 µM, first compound 1 µM
[23] = second compound 1 µM, first compound 3.16 µM
[24] = second compound 1 µM, first compound 10 µM
[25] = second compound 3.16 µM, first compound 0.0316 µM
[26] = second compound 3.16 µM, first compound 0.1 µM
[27] = second compound 3.16 µM, first compound 0.316 µM
[28] = second compound 3.16 µM, first compound 1 µM
[29] = second compound 3.16 µM, first compound 3.16 µM
[30] = second compound 3.16 µM, first compound 10 µM
[31] = second compound 10 µM, first compound 0.0316 µM
[32] = second compound 10 µM, first compound 0.1 µM
[33] = second compound 10 µM, first compound 0.316 µM
[34] = second compound 10 µM, first compound 1 µM
[35] = second compound 10 µM, first compound 3.16 µM
[36] = second compound 10 µM, first compound 10 µM
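Also: spheroids exposed to compounds for one week before readout.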
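For viability, T/C in this document: percent viability relative to DMSO vehicle wells taken as 100%.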

CC(C)n1c(=O)n(C)c2cnc3cc(F)c(-c4ccc(OCCCN5CCCCC5)nc4)cc3c21 + COC1C(OC(N)=O)C(O)C(Oc2ccc3c(O)c(NC(=O)c4ccc(O)c(CC=C(C)C)c4)c(=O)oc3c2C)OC1(C)C
IC50 (second compound 0.0316 µM): > 10 µM
IC50 (second compound 0.1 µM): > 10 µM
IC50 (second compound 0.316 µM): > 10 µM
IC50 (second compound 1 µM): > 10 µM
IC50 (second compound 3.16 µM): > 10 µM
IC50 (second compound 10 µM): > 10 µM
viability, T/C [1]: 92.8%
viability, T/C [2]: 94.6%
viability, T/C [3]: 104%
viability, T/C [4]: 109%
viability, T/C [5]: 130%
viability, T/C [6]: 104%
viability, T/C [7]: 97.8%
viability, T/C [8]: 98.6%
viability, T/C [9]: 101%
viability, T/C [10]: 108%
viability, T/C [11]: 112%
viability, T/C [12]: 113%
viability, T/C [13]: 108%
viability, T/C [14]: 98.6%
viability, T/C [15]: 104%
viability, T/C [16]: 99.6%
viability, T/C [17]: 121%
viability, T/C [18]: 99.5%
viability, T/C [19]: 117%
viability, T/C [20]: 117%
viability, T/C [21]: 95.2%
viability, T/C [22]: 106%
viability, T/C [23]: 116%
viability, T/C [24]: 102%
viability, T/C [25]: 112%
viability, T/C [26]: 111%
viability, T/C [27]: 109%
viability, T/C [28]: 105%
viability, T/C [29]: 99.6%
viability, T/C [30]: 93.2%
viability, T/C [31]: 99.9%
viability, T/C [32]: 102%
viability, T/C [33]: 101%
viability, T/C [34]: 102%
viability, T/C [35]: 107%
viability, T/C [36]: 94.5%

CCCS(=O)(=O)Nc1ccc(F)c(C(=O)c2c[nH]c3ncc(-c4ccc(Cl)cc4)cc23)c1F + COC1C(OC(N)=O)C(O)C(Oc2ccc3c(O)c(NC(=O)c4ccc(O)c(CC=C(C)C)c4)c(=O)oc3c2C)OC1(C)C
IC50 (second compound 0.0316 µM): 6.22 µM
IC50 (second compound 0.1 µM): 5.9 µM
IC50 (second compound 0.316 µM): 5.7 µM
IC50 (second compound 1 µM): 5.66 µM
IC50 (second compound 3.16 µM): 6.01 µM
IC50 (second compound 10 µM): 5.82 µM
viability, T/C [1]: 99.9%
viability, T/C [2]: 99.7%
viability, T/C [3]: 100%
viability, T/C [4]: 108%
viability, T/C [5]: 97.1%
viability, T/C [6]: 16.8%
viability, T/C [7]: 98.2%
viability, T/C [8]: 116%
viability, T/C [9]: 102%
viability, T/C [10]: 107%
viability, T/C [11]: 91.1%
viability, T/C [12]: 15.2%
viability, T/C [13]: 109%
viability, T/C [14]: 113%
viability, T/C [15]: 95.8%
viability, T/C [16]: 99.7%
viability, T/C [17]: 83.8%
viability, T/C [18]: 18.9%
viability, T/C [19]: 113%
viability, T/C [20]: 103%
viability, T/C [21]: 96.7%
viability, T/C [22]: 105%
viability, T/C [23]: 86.4%
viability, T/C [24]: 14.1%
viability, T/C [25]: 96.6%
viability, T/C [26]: 99.7%
viability, T/C [27]: 98.1%
viability, T/C [28]: 107%
viability, T/C [29]: 91.3%
viability, T/C [30]: 16.9%
viability, T/C [31]: 106%
viability, T/C [32]: 97.8%
viability, T/C [33]: 104%
viability, T/C [34]: 93%
viability, T/C [35]: 89.9%
viability, T/C [36]: 15.8%
